Results reported in publication PMC11191095, “QSAR Reveals Decreased Lipophilicity of Polar Residues Determines the Selectivity of Antimicrobial Peptide Activity” (ACS Omega, 2024).
Where a SMILES comes first, the peptide text is derived from it.

Experiments:
E. coli LEC001 = test: microbe, parasite or virus in culture; type: cell-based, Escherichia coli
In short: (§1)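 Peptides 128→2 μg/mL, 2-fold series; inoculum ~5 × 10^5 CFU/mL from overnight culture (OD600 0.01, mixed 1:1). MHB non-cation-adjusted for bacteria, RPMI 1640 + 2% glucose for fungi. 37 °C, 20 h, OD600. MIC50/MIC90 at 50%/90% inhibition; n ≥ 3.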

E. coli NCTC 12923 = test: microbe, parasite or virus in culture; type: cell-based, Escherichia coli
In short: as §1

A. baumannii ATCC 17978 = test: microbe, parasite or virus in culture; type: cell-based, Acinetobacter baumannii
In short: as §1

K. pneumoniae M6 = test: microbe, parasite or virus in culture; type: cell-based, Klebsiella pneumoniae
In short: as §1

[1] = tested on: S. aureus (MSSA) ATCC 9144; test: microbe, parasite or virus in culture; type: cell-based, Staphylococcus aureus
In short: as §1

C. auris TDG 1912 = test: microbe, parasite or virus in culture; type: cell-based, Candida auris
In short: as §1

C. albicans NCPF 3281 = test: microbe, parasite or virus in culture; type: cell-based
In short: as §1

C. glabrata NCPF 8018 = test: microbe, parasite or virus in culture; type: cell-based
In short: as §1

C. krusei NCPF 3876 = test: microbe, parasite or virus in culture; type: cell-based
In short: as §1

[2] = tested on: C. parapsilosis NCPF 3209; test: microbe, parasite or virus in culture; type: cell-based
In short: as §1

C. tropicalis NCPF 8760 = test: microbe, parasite or virus in culture; type: cell-based
In short: as §1

human erythrocytes = test: In vitro hemolytic activity; type: cell-based; settings: 1 h
Experimental: Potential erythrocyte hemolysis was tested by incubating serial dilutions of the AMPs in PBS with freshly collected erythrocytes at a ratio of 1:1 in 96-well polypropylene V-shape plates for 1 h at 37 °C. Control wells were treated with 0.1% Triton-X-100 to ensure complete lysis or PBS-only to represent no lysis. The erythrocytes were collected by centrifugation and the OD550 of the supernatant was measured using a plate reader. The percentage hemolysis was calculated as [drawing 1] 1 where Apeptide is the absorbance value of erythrocytes exposed to a known peptide concentration, Agrowth control is the absorbance of erythrocytes exposed to 0.1% Triton-X-100 and Ablank is the absorbance of erythrocytes exposed to the PBS. The concentrations at which a peptide caused 10% (HC10) and 50% (HC50) hemolysis was determined from the dose response curves.

P. aeruginosa NCTC 13437 = test: microbe, parasite or virus in culture; type: cell-based, Pseudomonas aeruginosa; settings: P. aeruginosa NCTC 13437 (R)
In short: as §1

P. aeruginosa PAO1 = test: microbe, parasite or virus in culture; type: cell-based, Pseudomonas aeruginosa; settings: P. aeruginosa PAO1 (S); shown in µM
In short: as §1

A. baumannii AYE = test: microbe, parasite or virus in culture; type: cell-based, Acinetobacter baumannii; settings: A. baumannii AYE (R); shown in µM
In short: as §1

K. pneumoniae NCTC 13368 = test: microbe, parasite or virus in culture; type: cell-based, Klebsiella pneumoniae; settings: K. pneumoniae NCTC 13368 (R)
In short: as §1

S. aureus (MRSA) 1199B = test: microbe, parasite or virus in culture; type: cell-based, Staphylococcus aureus; settings: S. aureus (MRSA) 1199B (R)
In short: as §1

[3] = tested on: S. aureus (MRSA) NCTC 13616; test: microbe, parasite or virus in culture; type: cell-based, Staphylococcus aureus; settings: S. aureus (MRSA) NCTC 13616 (R)
In short: as §1

S. aureus (MRSA) USA300 = test: microbe, parasite or virus in culture; type: cell-based, Staphylococcus aureus; settings: S. aureus (MRSA) USA300 (R)
In short: as §1

[4] = MHB, 37 °C, 20 h, OD600, min. three biological repeats
[5] = C. albicans NCPF 3281, shown in µM
[6] = C. glabrata NCPF 8018, shown in µM
[7] = C. krusei NCPF 3876, shown in µM
[8] = C. parapsilosis NCPF 3209, shown in µM
[9] = C. tropicalis NCPF 8760, shown in µM

## CSCC[C@H](NC(=O)[C@H](CCSC)NC(=O)[C@H](CCCCN)NC(=O)CNC(=O)[C@@H](NC(=O)[C@@H](NC(=O)[C@H](CCCCN)NC(=O)[C@H](CC(C)C)NC(=O)CNC(=O)[C@H](Cc1ccccc1)NC(=O)[C@H](CCCCN)NC(=O)[C@H](Cc1ccccc1)NC(=O)[C@H](C)NC(=O)[C@H](CCCCN)NC(=O)CNC(=O)[C@H](CC(C)C)NC(=O)[C@H](CC(C)C)NC(=O)[C@H](CO)NC(=O)CNC(=O)[C@H](CC(C)C)NC(=O)CN)[C@@H](C)O)C(C)C)C(=O)NCC(=O)NCC(=O)N[C@@H](C)C(=O)N1CCC[C@H]1C(=O)N[C@@H](CCCNC(=N)N)C(=O)N[C@@H](CCC(=O)O)C(=O)N[C@@H](CCC(N)=O)C(=O)O [CPF-MW1] (H-GLGSLLGKAFKFGLKTVGKMMGGAPREQ-OH)
E. coli LEC001; LEC001, 20 h
  Modal MIC: 2.7 µM
E. coli NCTC 12923; NCTC 12923, 20 h
  Modal MIC: 2.7 µM
A. baumannii ATCC 17978; ATCC 17978, 20 h
  Modal MIC: 1.4 µM
K. pneumoniae M6; M6, 20 h
  Modal MIC: 5.4 µM
[1]; ATCC 9144, 20 h
  Modal MIC: 1.4 µM
C. auris TDG 1912; TDG 1912, 20 h
  Modal MIC50: > 43.1 µM
  Modal MIC90: > 43.1 µM
C. albicans NCPF 3281; NCPF 3281, 20 h
  Modal MIC50: > 43.1 µM
  Modal MIC90: > 43.1 µM
C. glabrata NCPF 8018; NCPF 8018, 20 h
  Modal MIC50: > 43.1 µM
  Modal MIC90: > 43.1 µM
C. krusei NCPF 3876; NCPF 3876, 20 h
  Modal MIC50: 10.8 µM
  Modal MIC90: 10.8 µM
[2]; NCPF 3209, 20 h
  Modal MIC50: > 43.1 µM
  Modal MIC90: > 43.1 µM
C. tropicalis NCPF 8760; NCPF 8760, 20 h
  Modal MIC50: 21.6 µM
  Modal MIC90: 21.6 µM
Human erythrocytes; human erythrocytes in PBS, 37 °C, OD550, from dose response curves
  HC10 (concentration causing 10% hemolysis): 214 µg/mL
Human erythrocytes; red cells of human, 256 μg/mL
  % hemolysis: more than 10%

## CC(C)C[C@H](NC(=O)[C@H](CCCCN)NC(=O)[C@H](CO)NC(=O)[C@H](CCCCN)NC(=O)[C@H](Cc1c[nH]c2ccccc12)NC(=O)[C@H](C)NC(=O)[C@H](CCCCN)NC(=O)[C@H](CCCCN)NC(=O)[C@H](CC(C)C)NC(=O)[C@H](Cc1ccccc1)NC(=O)[C@H](CO)NC(=O)CN)C(=O)N[C@@H](C)C(=O)N[C@@H](CCCCN)C(=O)N[C@@H](CCCCN)C(=O)N[C@@H](CC(C)C)C(=O)N[C@@H](CCCNC(=N)N)C(=O)N[C@@H](C)C(=O)N[C@@H](CCCCN)C(=O)NCC(N)=O [PS-PB-20a] (H-GSFLKKAWKSKLAKKLRAKG-NH2)
E. coli LEC001; E. coli LEC001 (R), shown in µM
  Modal MIC: 27.8 µM
E. coli NCTC 12923; E. coli NCTC 12923 (S), shown in µM
  Modal MIC: 13.9 µM
P. aeruginosa NCTC 13437; [4]
  Modal MIC: > 128 µg/mL
P. aeruginosa NCTC 13437; shown in µM
  Modal MIC: > 55.7 µM
P. aeruginosa PAO1
  Modal MIC: 55.7 µM
A. baumannii ATCC 17978; A. baumannii ATCC 17978 (S), shown in µM
  Modal MIC: 3.5 µM
A. baumannii AYE
  Modal MIC: 13.9 µM
K. pneumoniae M6; K. pneumoniae M6 (S), MHB, 37 °C, 20 h, OD600, min. three biological repeats
  Modal MIC: > 128 µg/mL
K. pneumoniae M6; K. pneumoniae M6 (S), shown in µM
  Modal MIC: > 55.7 µM
K. pneumoniae NCTC 13368; [4]
  Modal MIC: > 128 µg/mL
K. pneumoniae NCTC 13368; shown in µM
  Modal MIC: > 55.7 µM
S. aureus (MRSA) 1199B; [4]
  Modal MIC: > 128 µg/mL
S. aureus (MRSA) 1199B; shown in µM
  Modal MIC: > 55.7 µM
[3]; [4]
  Modal MIC: > 128 µg/mL
[3]; shown in µM
  Modal MIC: > 55.7 µM
S. aureus (MRSA) USA300; [4]
  Modal MIC: > 128 µg/mL
S. aureus (MRSA) USA300; shown in µM
  Modal MIC: > 55.7 µM
[1]; S. aureus (MSSA) ATCC 9144 (S), shown in µM
  Modal MIC: 3.5 µM
C. auris TDG 1912; C. auris TDG 1912, 50% growth inhibition, RPMI 1640 + 2% glucose, 37 °C, 20 h, OD600
  Modal MIC50: > 128 µg/mL
C. auris TDG 1912; C. auris TDG 1912, 90% growth inhibition, RPMI 1640 + 2% glucose, 37 °C, 20 h, OD600
  Modal MIC90: > 128 µg/mL
C. auris TDG 1912; C. auris TDG 1912, shown in µM
  Modal MIC50: > 55.7 µM
  Modal MIC90: > 55.7 µM
C. albicans NCPF 3281; C. albicans NCPF 3281, 50% growth inhibition, RPMI 1640 + 2% glucose, 37 °C, 20 h
  Modal MIC50: > 128 µg/mL
C. albicans NCPF 3281; C. albicans NCPF 3281, 90% growth inhibition, RPMI 1640 + 2% glucose, 37 °C, 20 h
  Modal MIC90: > 128 µg/mL
C. albicans NCPF 3281; [5]
  Modal MIC50: > 55.7 µM
  Modal MIC90: > 55.7 µM
C. glabrata NCPF 8018; C. glabrata NCPF 8018, 50% growth inhibition, RPMI 1640 + 2% glucose, 37 °C, 20 h
  Modal MIC50: > 128 µg/mL
C. glabrata NCPF 8018; C. glabrata NCPF 8018, 90% growth inhibition, RPMI 1640 + 2% glucose, 37 °C, 20 h
  Modal MIC90: > 128 µg/mL
C. glabrata NCPF 8018; [6]
  Modal MIC50: > 55.7 µM
  Modal MIC90: > 55.7 µM
C. krusei NCPF 3876; C. krusei NCPF 3876, 90% growth inhibition, RPMI 1640 + 2% glucose, 37 °C, 20 h
  Modal MIC90: > 128 µg/mL
C. krusei NCPF 3876; [7]
  Modal MIC50: 55.7 µM
  Modal MIC90: > 55.7 µM
[2]; C. parapsilosis NCPF 3209, 50% growth inhibition, RPMI 1640 + 2% glucose, 37 °C, 20 h
  Modal MIC50: > 128 µg/mL
[2]; C. parapsilosis NCPF 3209, 90% growth inhibition, RPMI 1640 + 2% glucose, 37 °C, 20 h
  Modal MIC90: > 128 µg/mL
[2]; [8]
  Modal MIC50: > 55.7 µM
  Modal MIC90: > 55.7 µM
C. tropicalis NCPF 8760; [9]
  Modal MIC50: 27.8 µM
  Modal MIC90: 27.8 µM
